Like-named read-outs stand apart in the source and are kept apart here.
Experiments:
mushroom tyrosinase [1] = experiment: Mushroom tyrosinase enzyme assay with L-DOPA as substrate (475 nm); conditions: for inhibitory activity against tyrosinase: result in words; for IC50: L-DOPA oxidation, pH 6.8, 30 °C, mean of triplicate determinations ± standard deviation
Method: Firstly, the effect of the Q1compound against the tyrosinase activity was evaluated.
We measured enzyme assay with L-DOPA as the substrate. We determined enzyme activity at 475 nm in the spectrophotometric experiments. We dissolved the test compounds in DMSO at 1 mM, which was diluted to the required concentration (0, 15, 30, 60, 120, 180, 240, 300 μM). We measured the reaction solution (3 mL), consisting 0.75 mL sodium phosphate buffer (0.1 M, pH 6.8), 1.8 mL H2O, 0.3 mL L-DOPA (2 mM), 0.1 mL test compound, and 0.05 mL enzyme (0.2 mg /L), at 30 °C. We replaced test samples as control. We determined each concentration in three experiments. We used the concentration that inhibited half of the enzyme activity (IC50) to measure the inhibitory effect of inhibitor. We investigated kinetic parameters with increasing concentrations of L-DOPA and test samples by the Lineweaver–Burk double-reciprocal plot and Dixon plot methods. We calculated the % inhibition of tyrosinase as follows: Inhibition (%) = [1 − B/A]/100, where the A and B are the absorbances of the blank control and samples, respectively.

mushroom tyrosinase [2] = biological target: mushroom tyrosinase; design: method as in PMID 20638280; conditions: standard inhibitor; cited from earlier work
[3] = Fluorescence quenching of tyrosine; format: binding; conditions: Q1 from 0 to 36 μM; intensity 447.6 to 216.5
Text: We also investigated the fluorescence quenching Q1 experiment regarding tyrosine activity, and recorded the fluorescence intensity of tyrosine in the range of […]. […] Thus, the compound was also a good binding agent for tyrosine in a dose-dependent manner.
(§1) We used fluorescence analysis (Varian Cary Eclipse fluorescence spectrophotometer) to perform fluorescence experiment, and set the excitation wavelength at 290 nm. We mixed inhibitor solution, substrates of tyrosine/L-DOPA or enzyme solution, and sodium phosphate buffer (pH 6.8) at the volumetric ratio of 1:1:8 (v/v/v).

[4] = Fluorescence quenching of L-DOPA; format: binding; conditions: Q1 from 0 to 36 μM; intensity 1619 to 879.9
Method: Finally, the fluorescence emission spectra of L-DOPA were tested in the solutions of Q1 with various concentrations. […] Similarly, the fluorescence emission intensity of Q1 disappeared when it was added to the solution. The results inferred that Q1 was also a good L-DOPA binding agent.
as §1

mushroom tyrosinase [5] = experiment: Fluorescence quenching of mushroom tyrosinase; format: binding; conditions: Q1 at 36 μM; excitation 290 nm, emission peak 333 nm
Method: The intrinsic interaction mechanisms of Q1 on the tyrosinase were investigated by the fluorescence quenching analysis. The fluorescence emission spectrum was recorded as ranging from 310 to 550 nm at a 290 nm excitation wavelength. […] However, the fluorescence intensity of tyrosinase reduced gradually as the concentration of the citral derivative increased.
as §1

mushroom tyrosinase [6] = experiment: Kinetic studies of tyrosinase inhibition (enzyme concentration plots, Lineweaver-Burk plots); format: biochemical
Method: To ascertain the inhibition type and mechanism of Q1, we studied the relationship between the enzyme concentration and the remaining enzyme activity with various concentrations of Q1 (0, 15, 60, and 120 μM).
Different concentrations of the compound Q1 (0, 15, 60, and 120 μM) were applied to inhibit tyrosinase and obtain the kinetic behavior of tyrosinase catalysis. Lineweaver–Burk reciprocal plots were used to investigate the inhibition modes of Q1 on mushroom tyrosinase. […] Thus, Q1 could bind not only to the free enzymes but also to the enzyme–substrate complexes. […] Additionally, the value of KIS was measured to be 423.63 μM from the concentrations of the compound versus the vertical intercept.
We purchased mushroom tyrosinase (with specific activity 6680 U/mg), and L-3,4-dihydroxyphenyl-alanine (L-DOPA) from Sigma (St. Louis, MO, USA). We measured enzyme assay with L-DOPA as the substrate. We determined enzyme activity at 475 nm in the spectrophotometric experiments. We dissolved the test compounds in DMSO at 1 mM, which was diluted to the required concentration (0, 15, 30, 60, 120, 180, 240, 300 μM). We measured the reaction solution (3 mL), consisting 0.75 mL sodium phosphate buffer (0.1 M, pH 6.8), 1.8 mL H2O, 0.3 mL L-DOPA (2 mM), 0.1 mL test compound, and 0.05 mL enzyme (0.2 mg /L), at 30 °C. We replaced test samples as control. We determined each concentration in three experiments. We used the concentration that inhibited half of the enzyme activity (IC50) to measure the inhibitory effect of inhibitor. We investigated kinetic parameters with increasing concentrations of L-DOPA and test samples by the Lineweaver–Burk double-reciprocal plot and Dixon plot methods. We calculated the % inhibition of tyrosinase as follows: Inhibition (%) = [1 − B/A][…], where the A and B are the absorbances of the blank control and samples, respectively.

Compound: Cc1ccc(-c2nc3ccccc3c(=O)[nH]2)cc1 [Compound Q6, 2-(p-tolyl)quinazolin-4(3H)-one]
- inhibitory activity against tyrosinase (mushroom tyrosinase [1]): did not exhibit inhibitory activity

Compound: CC(C)=CCCC(C)=Cc1nc2ccc(Cl)cc2c(=O)[nH]1 [Compound Q3, 6-chloro-2-(2,6-dimethylhepta-1,5-dien-1-yl)quinazolin-4(3H)-one]
- IC50 (mushroom tyrosinase [1]): 168 ± 2 µM
- melting point: 190 to 192 °C

Compound: OC[C@H]1O[C@@H](Oc2ccc(O)cc2)[C@H](O)[C@@H](O)[C@@H]1O [arbutin]
- IC50 (mushroom tyrosinase [2]): 180 µM

Compound: CC(C)=CCCC(C)=Cc1nc2cc(C)ccc2c(=O)[nH]1 [Compound Q4, 2-(2,6-dimethylhepta-1,5-dien-1-yl)-7-methylquinazolin-4(3H)-one]
- IC50 (mushroom tyrosinase [1]): 253 ± 2 µM
- melting point: 188 to 192 °C

Compound: COc1ccc(-c2nc3ccccc3c(=O)[nH]2)cc1 [Compound Q7, 2-(4-methoxyphenyl)quinazolin-4(3H)-one]
- inhibitory activity against tyrosinase (mushroom tyrosinase [1]): did not exhibit inhibitory activity

Compound: CC(C)=CCCC(C)=Cc1nc2cccc(F)c2c(=O)[nH]1 [Compound Q2, 2-(2,6-dimethylhepta-1,5-dien-1-yl)-5-fluoroquinazolin-4(3H)-one]
- IC50 (mushroom tyrosinase [1]): 105 ± 1 µM
- melting point: 189 to 191 °C

Compound: CC(C)=CCCC(C)=Cc1nc2ccccc2c(=O)[nH]1 [Compound Q1, 2-(2,6-dimethylhepta-1,5-dien-1-yl)quinazolin-4(3H)-one]
- decrease of fluorescence intensity of tyrosine [3]: 51.63%
- IC50 (mushroom tyrosinase [1]): 103 ± 2 µM
- decrease of fluorescence intensity of L-DOPA [4]: 45.65%
- relative fluorescence intensity of tyrosinase (mushroom tyrosinase [5]): 39.45%
- inhibition type (mushroom tyrosinase [6]; Lineweaver-Burk plots, Q1 at 0, 15, 60, 120 μM): mixed inhibition type
- reversibility of inhibition (mushroom tyrosinase [6]; enzyme activity versus enzyme concentration, Q1 at 0, 15, 60, 120 μM): reversible
- KIS (mushroom tyrosinase [6]; enzyme-substrate complex, from vertical intercept versus compound concentration): 423.63 µM
- Ki (mushroom tyrosinase [6]; free enzyme, from plots of slope versus compound concentration, read-out: inhibitor constant (KI)): 117 µM

Source: paper PMC9457556, “Newly Designed Quinazolinone Derivatives as Novel Tyrosinase Inhibitor: Synthesis, Inhibitory Activity, and Mechanism” (Molecules, 2022)
